Data from patent publication US20120088800A1, “2-(SUBSTITUTED) (ARYLMETHYL, ARYLOXY and ARYLTHIO))-N-(SUBSTITUTED PYRIDIN-2-YL)-2-(SUBSTITUTED ARYL) COMPOUNDS AS SUBTYPE-SELECTIVE MODULATORS OF SPHINGOSINE-1-PHOSPHATE-3 (S1P3) RECEPTORS” (ALLERGAN, INC., priority 2009, published 2012).
Structures can show the parent of a compound that is named as a salt.

Tests used:
perfused porcine eyes = details: IOVS 45, 2263, 2004; cited from earlier work
S1P2 = biological target: T1, S1P2 (Homo sapiens, UniProt O95136); test: FLIPR calcium assay, cells expressing S1P2 and a G-protein; assay type: cell-based; details: fluo-4 calcium signal compared to sphingosine 1-phosphate
T1 construct: expressed in transfected cells
Excerpt: (§1) Novel compounds having this general structure were synthesized and tested for sphingosine 1-phosphate receptor (S1P) activity using the FLIPR assay. Cells expressing the receptor of interest (S1P1, S1P2 or S1P3) and a G-protein (Gqi5 or G16) are loaded with fluo-4, a calcium sensitive dye. After removal of excess dye by washing, the cells are placed in the FLIPR TETRA instrument. Baseline fluorescence readings are taken prior to addition the compound to be tested. Agonists will trigger the receptor to interact with the G-protein, leading to an increase in intracellular calcium. The increase in intracellular calcium causes an increase in the fluorescence of the cells, due to the presence of fluo-4. This fluorescence increase is recorded by the FLIPR TETRA. After the calcium transient signal has decreased towards baseline, the standard agonist sphingosine 1-phosphate is added. If the test compound is an antagonist, an initial calcium signal will not be generated and the antagonist will prevent the generation of a calcium signal from sphingosine 1-phosphate. The level of fluorescence is compared to that of sphingosine 1-phosphate, and the EC50 or IC50 of the compound determined by curve fitting.

S1P3 = biological target: T2, S1P3 (Homo sapiens, UniProt Q99500); test: FLIPR calcium assay, cells expressing S1P3 and a G-protein; assay type: cell-based; details: for EC50: fluo-4 calcium signal compared to sphingosine 1-phosphate, antagonist mode; for FLIPR (% Antagonism) S1P3: value in parentheses below the EC50, antagonism of sphingosine 1-phosphate signal
T2 construct: expressed in transfected cells
Excerpt: as §1

S1P1 = biological target: T3, S1P1 (Homo sapiens, UniProt P21453); test: FLIPR calcium assay, cells expressing S1P1 and a G-protein; assay type: cell-based; details: fluo-4 calcium signal compared to sphingosine 1-phosphate
T3 construct: expressed in transfected cells
Excerpt: as §1

T2 sequence (Q99500 whole entry, species assumed): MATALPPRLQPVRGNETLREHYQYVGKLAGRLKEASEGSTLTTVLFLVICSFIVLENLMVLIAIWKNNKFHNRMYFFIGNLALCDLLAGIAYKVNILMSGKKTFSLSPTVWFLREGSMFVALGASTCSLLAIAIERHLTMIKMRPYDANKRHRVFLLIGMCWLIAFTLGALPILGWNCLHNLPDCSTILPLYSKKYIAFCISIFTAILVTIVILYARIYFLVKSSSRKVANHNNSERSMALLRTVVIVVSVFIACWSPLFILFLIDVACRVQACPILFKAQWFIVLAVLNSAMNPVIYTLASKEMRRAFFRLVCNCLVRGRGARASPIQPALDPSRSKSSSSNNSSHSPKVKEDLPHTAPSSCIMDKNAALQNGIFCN
T1 sequence (O95136 whole entry, species assumed): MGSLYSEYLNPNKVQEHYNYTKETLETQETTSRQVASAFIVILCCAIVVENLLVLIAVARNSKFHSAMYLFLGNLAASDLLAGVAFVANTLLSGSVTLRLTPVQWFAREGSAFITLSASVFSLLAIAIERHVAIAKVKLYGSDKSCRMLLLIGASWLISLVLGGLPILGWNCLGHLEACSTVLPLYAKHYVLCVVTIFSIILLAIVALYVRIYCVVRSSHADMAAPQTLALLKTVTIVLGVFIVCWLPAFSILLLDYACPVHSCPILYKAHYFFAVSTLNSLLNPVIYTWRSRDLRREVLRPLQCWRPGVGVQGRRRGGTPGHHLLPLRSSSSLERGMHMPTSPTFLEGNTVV
T3 sequence (P21453 whole entry, species assumed): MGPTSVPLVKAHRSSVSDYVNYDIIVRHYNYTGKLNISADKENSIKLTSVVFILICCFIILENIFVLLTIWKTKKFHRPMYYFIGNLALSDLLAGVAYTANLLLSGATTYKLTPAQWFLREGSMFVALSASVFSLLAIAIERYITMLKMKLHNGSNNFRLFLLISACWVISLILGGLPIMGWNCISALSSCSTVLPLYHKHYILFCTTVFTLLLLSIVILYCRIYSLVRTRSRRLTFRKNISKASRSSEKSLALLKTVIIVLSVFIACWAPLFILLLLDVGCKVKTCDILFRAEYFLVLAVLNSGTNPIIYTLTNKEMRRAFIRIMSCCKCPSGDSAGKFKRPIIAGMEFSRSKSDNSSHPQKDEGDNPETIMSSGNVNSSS

Compound	decrease of outflow facility (perfused porcine eyes) [%]	EC50 (S1P2) [nM]	EC50 (S1P3) [nM]	FLIPR (% Antagonism) S1P3 (S1P3)	EC50 (S1P1) [nM]
CCCCCCCCCCCCC/C=C/[C@@H](O)[C@@H](N)COP(=O)(O)O [Example S1P, sphingosine 1-phosphate]	> 30	–	–	–	–
Cc1ccc(SC(C(=O)Nc2ccc(Cl)cn2)c2ccc(Cl)cc2)cc1C (stereo not drawn) [Example 15, 2-(4-chlorophenyl)-N-(5-chloropyridin-2-yl)-2-(3,4-dimethylphenylthio)acetamide hydrochloride]	–	> 8300	240	(98) %	> 8300
O=C(Nc1ccc(Cl)cn1)C(Sc1ccc(Cl)cc1)c1ccc(Cl)cc1 (stereo not drawn) [Example 23, 2-(4-chlorophenyl)-2-(4-chlorophenylthio)-N-(5-chloropyridin-2-yl)acetamide hydrochloride]	–	> 8300	173	(97) %	> 8300
O=C(Nc1ccc(Br)cn1)C(Sc1ccc(Br)cc1)c1ccccc1 (stereo not drawn) [Example 25, 2-(4-bromophenylthio)-N-(5-bromopyridin-2-yl)-2-phenylacetamide]	–	> 8300	286	(99) %	> 8300
O=C(Nc1ccc(Br)cn1)C(Cc1ccccc1)c1ccccc1 (stereo not drawn) [Example 30, N-(5-bromopyridin-2-yl)-2,3-diphenylpropanamide hydrochloride]	–	> 8300	162	(100) %	> 8300
Cc1ccc(SC(C(=O)Nc2ccc(Cl)cn2)c2ccc(Cl)cc2)cc1 (stereo not drawn) [Example 17, 2-(4-chlorophenyl)-N-(5-chloropyridin-2-yl)-2-(p-tolylthio)acetamide hydrochloride]	–	> 8300	322	(99) %	> 8300
O=C(Nc1ccc(Cl)cn1)C(Sc1ccc(Br)cc1)c1ccccc1 (stereo not drawn) [Example 24, 2-(4-bromophenylthio)-N-(5-chloropyridin-2-yl)-2-phenylacetamide]	–	> 8300	230	(99) %	> 8300
O=C(Nc1ccc(Br)cn1)C(Sc1cccc(Cl)c1)c1ccccc1 (stereo not drawn) [Example 20, N-(5-bromopyridin-2-yl)-2-(3-chlorophenylthio)-2-phenylacetamide hydrochloride]	–	> 8300	166	(97) %	> 8300
Cc1ccc(OC(C(=O)Nc2ccc(Br)cn2)c2ccc(Cl)cc2)cc1.Cl (stereo not drawn) [Example 2, N-(5-bromopyridin-2-yl)-2-(4-chlorophenyl)-2-(p-tolyloxy)acetamide hydrochloride]	–	> 8300	185	(100) %	> 8300
COc1ccc(OC(C(=O)Nc2ccc(Cl)cn2)c2ccc(Cl)cc2)cc1.Cl (stereo not drawn) [Example 3, 2-(4-chlorophenyl)-N-(5-chloropyridin-2-yl)-2-(4-methoxyphenoxy)acetamide hydrochloride]	–	> 8300	166	(98) %	> 8300
COc1ccc(SC(C(=O)Nc2ccc(Br)cn2)c2ccc(Cl)cc2)cc1.Cl (stereo not drawn) [Example 11, N-(5-bromopyridin-2-yl)-2-(4-chlorophenyl)-2-(4-methoxyphenylthio)acetamide hydrochloride]	–	> 8300	361	(100) %	> 8300
O=C(Nc1ccc(Br)cn1)C(c1ccc(Cl)cc1)c1ccc(Cl)cc1 [Example 33, N-(5-bromopyridin-2-yl)-2,2-bis(4-chlorophenyl)acetamide]	–	> 8300	1720	(94) %	> 8300
